Assay results published in patent publication US10858388B2, “Selective progesterone receptor modulator (SPRM) regimen” (BAYER PHARMA AKTIENGESELLSCHAFT, priority 2015, dated 2020).

Columns and labels:
Assay type in all cases: in vivo, human
[1] = system: subjects with uterine fibroids; experiment: Study 17541: endometrium thickness, 2x3-month treatment with break period (Example 7); conditions: 2 mg once daily, 6 subjects, blinded, 2x12 weeks with 1 bleeding episode break or 1x12 weeks
Description: A randomized, parallel-group, double-blind, placebo-controlled, multi-center study to assess efficacy of a dose of 2 mg of Compound 1 where primary efficacy variable is Endometrial thickness, in subjects with uterine fibroids over 2×3-month with break period allowing bleeding episode.
(§1) Route of administration: Oral
Duration of treatment: 2×3-month [2×12 weeks]+one bleeding episode (B1) and 1×3-month [1×12 weeks] (B2) without treatment break
Women, 18 to 50 years old, with uterine fibroids documented by transvaginal or abdominal ultrasound at screening with at least 1 uterine fibroid with largest diameter 3.0 cm and heavy menstrual bleeding (HMB) […] were eligible for enrolment in the study.
Number of Women: 6 subjects that have finalized the treatment
Eligible subjects were equally randomized to one of the treatment groups (Placebo, 2 mg of Compound 1). Treatment period was started during the first three days of the bleeding episode following randomization or ongoing at randomization. The treatment period was consisting of daily tablet intake without treatment break. • Treatment B1: 2 mg of Compound 1 (12 weeks), 1 bleeding episode, 2 mg of Compound 1 (12 • weeks). • Treatment B2: Placebo (12 weeks), 1 bleeding episode, 2 mg of Compound 1 (12 weeks).
Efficacy Measurement: • endometrial biopsies, • cervical smear, • transvaginal ultrasound (TUV) (endometrial thickness, ovaries). […]

[2] = system: patient diagnosed with Uterine Fibroids; experiment: Long term treatment of patients with Compound 1, summary findings
From the text: Compound 1 is a potent Selective Progesterone Receptor Modulator (SPRM) and more particularly a competitive Progesterone Receptor (PR) antagonist creating alternatives for the treatment of Uterine Fibroids. […] Amenorrhea corresponds to the major objective of the treatment i.e. control of excessive uterine bleeding.

uterine fibroids = experiment: Study 15788: change in volume of largest fibroid by MRI and TVU (Example 8)
Description: A randomized, parallel-group, double-blind, placebo-controlled, multi-center study to assess efficacy of different doses of Compound 1 where secondary efficacy variable is the change in volume of the largest fibroid in subjects wherein treatment is of 3 months [1×12 weeks (84 days)]. Doses: 0.5 mg, 1 mg, 2 mg, or 4 mg once daily Route of administration: Oral Duration of treatment: 1×12 weeks (84 days) Women, 18 to 50 years old, with uterine fibroids documented by transvaginal or abdominal ultrasound at screening with at least 1 uterine fibroid with largest diameter 3 cm and heavy menstrual bleeding (HMB) 80 ml were be eligible for enrolment in the study. The secondary efficacy variable is the percent change in volume of the largest fibroid compared to baseline (measured by MRI and TVU) • MRI: Magnetic Resonance Imaging • TVU: Transvaginal/abdominal ultrasound Ultrasound examination was performed consistent with the schedule of procedures (Table 1). For each subject, the most appropriate ultrasound method (transvaginal or abdominal) was used depending on fibroid location and this method was consistently used throughout the study. The same ultrasound machine (per site) should be used throughout the study. The 3 largest fibroids were identified during the screening period. […]

[3] = system: subjects with uterine fibroids; experiment: Study 15788: amenorrhea, 3-month treatment (Example 4)
Description: A randomized, parallel-group, double-blind, placebo-controlled, multi-center study to assess efficacy of different doses of Compound 1 where primary efficacy variable is Amenorrhea, in subjects with uterine fibroids over a 3-month treatment [1×12 weeks/84 days]
Doses: 0.5 mg, 1 mg, 2 mg, or 4 mg once daily
as §1
Duration of treatment: 1×12 weeks (84 days)
Women, 18 to 50 years old, with uterine fibroids documented by transvaginal or abdominal ultrasound at screening with at least 1 uterine fibroid with largest diameter 3 cm and Heavy Menstrual Bleeding (HMB) 80 ml were eligible for enrolment in the study.
Eligible subjects were equally randomized to one of the treatment groups (Placebo, 0.5 mg, 1 mg, 2 mg, or 4 mg Compound 1). Treatment was started during the first week of the menstrual cycle following randomization. The treatment period consisted of 12 weeks (84 days) of daily tablet intake.
Efficacy Measurement: • daily documentation of bleeding intensity (electronic diary or eDiary) • Menstrual Pictogram MP (electronic diary or eDiary) • collection of sanitary products for analysis of menstrual blood loss with alkaline hematin (AH) method
(§2) Onset of amenorrhea is defined by the first day for which the menstrual blood loss (assessed by MP) for all subsequent 28-day periods up to the end of the treatment period is less than 2 ml.
The primary objective estimates the dose-response curve based on the primary endpoint women with amenorrhea by dose.

[4] = system: subjects with uterine fibroids; experiment: Study 17541: amenorrhea, 3-month vs 6-month treatment (Example 5)
Description: A randomized, parallel-group, double-blind, placebo-controlled, multi-center study to assess efficacy of a dose of 2 mg of Compound 1 where primary efficacy variable is Amenorrhea, in subjects with uterine fibroids over 3 months [1×12 weeks] and 6 months [2×12 weeks without treatment break].
Test drug: Compound 1 Doses: 2 mg, once daily
as §1
Duration of treatment: 2×12 weeks without treatment break
Women, 18 to 50 years old, with uterine fibroids documented by transvaginal or abdominal ultrasound at screening with at least 1 uterine fibroid with largest diameter 3 cm and Heavy Menstrual Bleeding (HMB) 80∃ ml were eligible for enrolment in the study.
Eligible subjects will be equally randomized to one of the treatment groups (Placebo, 2 mg of Compound 1). Treatment will start during the first week of the menstrual cycle following randomization. The treatment period will consist of 1×12 and 2×12 weeks (84 days) of daily tablet intake. • Treatment A1: 2 mg of Compound 1 (12 weeks), 2 mg of Compound 1 (12 weeks) without treatment break • Treatment A2: Placebo (12 weeks), 2 mg of Compound 1 (12 weeks).
Efficacy Measurement: • daily documentation of bleeding intensity (electronic diary or eDiary) • Menstrual Pictogram MP (electronic diary or eDiary).
as §2
The primary endpoint amenorrhea (no/yes) was based on the bleeding intensity recorded in the eDiary/Daily bleeding diary.

[5] = 6 months (2x12 weeks without treatment break)

**Q.** Which results are given for `C[C@]12C[C@H](c3ccc(S(C)(=O)=O)cc3)C3=C4CCC(=O)C=C4CC[C@H]3[C@@H]1CC[C@@]2(O)C(F)(F)C(F)(F)F` [Compound 1, (11β,17β)-17-Hydroxy-11-[4-(methylsulphonyl)phenyl]-17-(pentafluoroethyl)estra-4,9-dien-3-one]?
**A.** Endometrial size [1]: ≤ 18 mm; Treatment-emergent critical endometrial findings [1]: no treatment-emergent critical endometrial findings occurred; Amenorrhea [2]: observed at early stage and with high intensity; Endometrial hypertrophy (TEAE) [2]: no endometrial hypertrophy was reported; Major safety findings [2]: no major safety findings were reported; Ovulation inhibition [2]: ovulation inhibition was observed; Pelvic pain [2]: found to be reduced; Uterine fibroids size [2]: clearly reduced; Fibroid size during treatment (uterine fibroids; 0.5-4 mg once daily, 12 weeks, MRI and TVU): dose-dependent reduction in fibroid size; Effect on fibroid size during follow-up (uterine fibroids; follow-up after 12 weeks treatment): partially sustained during follow-up; Amenorrhea (<2 ml) at EoT (%) 12 Weeks ([3]; 0.5 mg once daily oral): 66.63%; Amenorrhea (<2 ml) at EoT (%) 12 Weeks ([3]; 1 mg once daily oral): 87.09%; Amenorrhea (<2 ml) at EoT (%) 12 Weeks ([3]; 2 mg once daily oral): 91.65%; Amenorrhea (<2 ml) at EoT (%) 12 Weeks ([3]; 4 mg once daily oral): 89.81%; Induction of amenorrhea ([3]; 0.5-4 mg once daily, 12 weeks): dose-dependent induction of amenorrhea; Heavy menstrual bleeding ([3]; 0.5-4 mg once daily, 12 weeks, FIG. 3): reduced quickly and sustainably; Subjects achieving amenorrhea during treatment ([3]; 12 weeks, FIG. 3): Most subjects even achieved amenorrhea already during treatment; Amenorrhea until 6 months of treatment ([4]; 2 mg once daily, 2x12 weeks without treatment break, preliminary data): amenorrhea observed after 1×12 weeks is maintained; Rate of subjects with endometrial thickness above 18 mm [4, 5]: not found to be increased; Rates of adverse events with regard to ovarian cysts or bleeding [4, 5]: do not show increased rates of adverse events
